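Method: 48-hour compound exposure of cells in 96-well plates, five concentrations, linear interpolation of endpoints. GI50 = concentration required for 50% inhibition of growth.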 The source made the active and inactive calls. Rule as the data show it: active = GI50 up to about 1.1 µM and inactive = higher.

This is an account of results in ChEMBL document CHEMBL1201862, “PubChem BioAssay data set” (2004).

What all share (experiment): NCI tumour cell line growth inhibition, 48 h
In experiment [1] the test system is U-251.
Experiment [2] has as its system M14.
Experiment [3] has as its system M19-MEL.
In experiment [4] the test system is 786-0.
Experiment [5] concerns TK-10.
Experiment [6] relates to SK-OV-3.
The test system of experiment [7] is OVCAR-3.
Experiment [8] has as its system SK-MEL-2.
The subject of experiment [9] is HCT-15.
Experiment [10] relates to SN12C.
In experiment [11] the test system is NCI-H460.
Experiment [12] relates to HL-60.
For experiment [13], the system named is CCRF-CEM.
Experiment [14] deals with HCC 2998.
Experiment [15] relates to EKVX.
Experiment [16] deals with SNB-75.
Experiment [17] has as its system PC-3.
The subject of experiment [18] is NCI/ADR-RES.
Experiment [19] concerns MDA-N.
For experiment [20], the system named is BT-549.

As to `O=[N+]([O-])c1ccc(COc2cccc3cccnc23)cc1`, the GI50 in experiment [1] is 10 µM (inactive); in experiment [2], 10.6 µM (inactive); in experiment [3], 15.1 µM (inactive); in experiment [4], 17.2 µM (inactive); in [5], 15.8 µM (inactive); in experiment [6] it was 32.3 µM (inactive). In addition, the GI50 is 5.94 µM (inactive) in experiment [7]; 14.6 µM (inactive) in experiment [8]; 7.1 µM in experiment [9]; 22.6 µM (inactive) in experiment [10]; 1.23 µM (inactive) in [11]; 5.69 µM (inactive) in experiment [12]. The GI50 was 3.94 µM (inactive) in experiment [13], 22.3 µM (inactive) in experiment [14], 18.9 µM (inactive) in experiment [15] and 26.9 µM (inactive) in [16].

In the case of `N=C(Nc1nc(-c2ccccn2)cc2ccccc12)c1ccccn1`, the GI50 is 0.0295 µM (active) in experiment [1]; 0.0229 µM (active) in experiment [2]; 0.232 µM (active) in [3]; 0.0317 µM (active) in [4]; 0.249 µM (active) in experiment [5]; < 0.0129 µM (active) in [17]. The GI50 in experiment [6] is 0.0308 µM (active); in experiment [7], 0.01 µM (active); in experiment [18], < 0.0185 µM (active); in experiment [9], 0.0149 µM; in experiment [10], 0.0252 µM (active); in experiment [11], 0.0857 µM (active). Besides, the GI50 is 0.01 µM (active) in [12]; 0.01 µM (active) in [13]; 0.117 µM (active) in experiment [14]; 0.0221 µM (active) in experiment [15]; 0.272 µM (active) in [19]; 0.361 µM (active) in [16].

With `CCC(C)CN1C(=O)NC(Cc2ccccc2)C1=O` (configuration not stated), the GI50 in experiment [1], in [2], in [3], in experiment [5], in [8] and in experiment [10] was > 100 µM (inactive) each time. The GI50 in [11] was > 100 µM (inactive); in experiment [12] it was > 10 µM (inactive); in [14] it was > 100 µM (inactive); in experiment [15] it was > 100 µM (inactive); in experiment [16], > 100 µM (inactive).

With `O=C(Nc1ccc(Cl)cc1Cl)/C(Cl)=C1/Sc2ccccc2NC1=O`, the GI50 was 32.3 µM (inactive) in experiment [1]; 29.2 µM (inactive) in experiment [2]; 37.8 µM (inactive) in experiment [3]; 45.3 µM (inactive) in experiment [4]; 73.5 µM (inactive) in [5]; 20.8 µM (inactive) in experiment [6]. Besides, the GI50 in experiment [8] is 15.2 µM (inactive); in experiment [9], 25.9 µM; in experiment [10] it was 28.4 µM (inactive); in experiment [11], 38.6 µM (inactive); in [12] it was 21.9 µM (inactive); in [13] it was 22.8 µM (inactive). Moreover, the GI50 is 32 µM (inactive) in [14], 58.1 µM (inactive) in experiment [15] and 18 µM (inactive) in [16].

Regarding `COC(=O)[C@H]1N[C@@H](C(=O)OC)C23CCC[C@H]2CC[C@]1(C(OC)OC)C3`, the GI50 was > 100 µM (inactive) in experiment [1]; > 100 µM (inactive) in [2]; > 100 µM (inactive) in experiment [3]; 81.1 µM (inactive) in [4]; > 100 µM (inactive) in experiment [5]; > 100 µM (inactive) in experiment [6]. Also, the GI50 is > 100 µM (inactive) in experiment [8]; above 100 µM in [9]; > 100 µM (inactive) in experiment [10]; > 100 µM (inactive) in experiment [11]; > 100 µM (inactive) in experiment [12]; > 100 µM (inactive) in experiment [13]. For the same compound, the GI50 in experiment [14], in [15] and in experiment [16] was > 100 µM (inactive) in each case.

With `Nc1nc(N)c2nc(-c3ccco3)cnc2n1`, the GI50 is 34.1 µM (inactive) in [1]; 50 µM (inactive) in [2]; > 100 µM (inactive) in [3]; 27.1 µM (inactive) in experiment [4]; 88.1 µM (inactive) in experiment [5]; 76.9 µM (inactive) in [6]. Moreover, the GI50 was 56.9 µM (inactive) in experiment [7]; above 100 µM in [9]; 85.5 µM (inactive) in experiment [10]; 35.3 µM (inactive) in [11]; 28.3 µM (inactive) in [12]; 43.1 µM (inactive) in experiment [13]. In addition, the GI50 in [14] is > 100 µM (inactive); in experiment [15], 18.3 µM (inactive); in experiment [16] it was 28.4 µM (inactive).

`C/C(CCn1[nH]c(=O)ccc1=O)=N\NC(=O)C(=O)NN`: the GI50 in [2], in experiment [3], in experiment [4], in experiment [5], in experiment [6] and in experiment [7] was > 100 µM (inactive) each time. For the same compound, the GI50 was > 100 µM (inactive) in experiment [8]; above 100 µM in [9]; > 100 µM (inactive) in [10]; > 100 µM (inactive) in experiment [11]; > 100 µM (inactive) in [12]; > 100 µM (inactive) in experiment [13]. For the same compound, the GI50 in experiment [14] and in [15] was > 100 µM (inactive) in each case.

Regarding `C=CCc1cc(OC)c2c(c1)C(OC(C)=O)CC(c1ccc(OC)c(OC)c1)O2` (configuration not stated), the GI50 was 60.5 µM (inactive) in experiment [1]; > 100 µM (inactive) in experiment [2]; > 100 µM (inactive) in [3]; 63.1 µM (inactive) in experiment [5]; > 100 µM (inactive) in [6]; > 100 µM (inactive) in experiment [7]. In addition, the GI50 is above 100 µM in experiment [9]; > 100 µM (inactive) in experiment [10]; > 100 µM (inactive) in [11]; > 100 µM (inactive) in [12]; > 100 µM (inactive) in experiment [13]; > 100 µM (inactive) in [14]. The GI50 in [15] was > 100 µM (inactive); in experiment [16], 17.1 µM (inactive).

Take `C=C(N=[N+]=[N-])c1cn(C2CC(O)C(CO)O2)c(=O)[nH]c1=O` (configuration not stated): the GI50 in experiment [1], in experiment [2], in [3], in [4], in experiment [5] and in experiment [6] was > 100 µM (inactive) throughout. In addition, the GI50 was > 100 µM (inactive) in [7]; > 100 µM (inactive) in [8]; above 100 µM in [9]; > 100 µM (inactive) in [10]; > 100 µM (inactive) in [11]; > 100 µM (inactive) in [12]. The GI50 in experiment [13], in [14], in experiment [15] and in experiment [16] was > 100 µM (inactive) in each case.

With `COc1ccc(Cc2c3cc(OC)c(OC)cc3cc[n+]2C)cc1`, the GI50 was 13.5 µM (inactive) in experiment [1]; > 21.7 µM (inactive) in experiment [2]; 12.6 µM (inactive) in experiment [3]; > 23.8 µM (inactive) in experiment [4]; > 52.5 µM (inactive) in experiment [5]; 7.28 µM (inactive) in experiment [7]. The GI50 in experiment [8] was > 29.1 µM (inactive); in [9], above 31.3 µM; in [10], 4.93 µM (inactive); in experiment [12], 1.21 µM (inactive); in experiment [14] it was > 25.2 µM (inactive); in experiment [15] it was > 39 µM (inactive). The GI50 in experiment [16] is 9.25 µM (inactive).

With `COc1ccc2[nH]c3c(C)c4cc[n+](C)cc4c(C)c3c2c1`, the GI50 in [1] was 0.105 µM (active); in experiment [3] it was 0.661 µM (active); in experiment [17], 4.55 µM (inactive); in experiment [6], 7.74 µM (inactive); in experiment [7], 2.82 µM (inactive); in [8], 2.87 µM (inactive). Also, the GI50 in experiment [18] was 19.3 µM (inactive); in [20] it was 1.57 µM (inactive); in experiment [10] it was 0.0834 µM (active); in experiment [11] it was 1.26 µM (inactive); in experiment [12] it was 14.9 µM (inactive); in experiment [13] it was 1.14 µM (inactive). The GI50 in experiment [14] was 1.92 µM (inactive); in experiment [15], 0.738 µM (active); in experiment [16], 0.121 µM (active).
